According to patent US11324728B2, “Dosing regimens for the treatment of fungal infections” (Seren Pharmaceuticals Inc., priority 2017, dated 2022):
Values joined by “and” are separate entries in the source; they are usually repeats but may differ in a detail not shown here. Equal values may be shown once.

Tested on: onychomycosis of the toenail
Experiment: Phase II clinical study: overall clinical efficacy
Type: in vivo, human
Experimental: A Phase II clinical pharmacology study was conducted in subjects with onychomycosis of the toenail. The study investigated the pharmacokinetics, efficacy and safety of three different dosing regimens of fosravuconazole. […] The three treatment groups were as follows: • a.
The efficacy endpoints were: (1) overall clinical efficacy; (2) changes over time in efficacy; (3) confirmation of elements of dermatophytes by direct microscopy; and (4) results of identification of dermatophytes by the polymerase chain reaction (PCR) method.
Overall clinical efficacy (cure rate and response rate) at Weeks 48 and 24 after the study treatment initiation for the efficacy analysis population (per protocol set, PPS) are presented in Tables 1 and 2 below. Overall clinical efficacy (cure rate and response rate) at Weeks 48 and 24 after the study treatment initiation for the full analysis set (FAS) are presented in Tables 3 and 4 below.

[1] = 100 mg once daily, Week 24, FAS
[2] = 100 mg once daily, Week 24, PPS
[3] = 100 mg once daily, Week 48, FAS
[4] = 100 mg once daily, Week 48, PPS
[5] = 200 mg pulse treatment, Week 24, FAS
[6] = 200 mg pulse treatment, Week 24, PPS
[7] = 200 mg pulse treatment, Week 48, FAS
[8] = 200 mg pulse treatment, Week 48, PPS
[9] = 400 mg pulse treatment, Week 24, FAS
[10] = 400 mg pulse treatment, Week 24, PPS
[11] = 400 mg pulse treatment, Week 48, FAS
[12] = 400 mg pulse treatment, Week 48, PPS

C[C@@H](c1nc(-c2ccc(C#N)cc2)cs1)[C@@](Cn1cncn1)(OCOP(=O)(O)O)c1ccc(F)cc1F [fosravuconazole, 4-[2-[(1R,2R)-2-(2,4-difluorophenyl)-1-methyl-2-[(phosphonooxy)methoxy]-3-(1H-1,2,4-triazol-1-yl)propyl]-4-thiazolyl]benzo-nitrile]
Cure rate and 95% CI [1]: 0.0 (0.0, 13.2) %
Cured [1]: 0
Failed [1]: 0
Improved [1]: 6
Markedly improved [1]: 20
Response rate and 95% CI [1]: 76.9 (56.4, 91.0) %
Slightly improved [1]: 0
Cure rate and 95% CI [2]: 0.0 (0.0, 13.7) %
Cured [2]: 0
Failed [2]: 0
Improved [2]: 6
Markedly improved [2]: 19
Response rate and 95% CI [2]: 76.0 (54.9, 90.6) %
Slightly improved [2]: 0
Cure rate and 95% CI [3]: 38.5 (20.3, 59.4) %
Cured [3]: 10
Failed [3]: 0
Improved [3]: 1
Markedly improved [3]: 15
Response rate and 95% CI [3]: 96.2 (80.4, 99.9) %
Slightly improved [3]: 0
Cure rate and 95% CI [4]: 40.0% and 40.0 (21.2, 61.3) %
Cured [4]: 10
Failed [4]: 0
Improved [4]: 1
Markedly improved [4]: 14
Response rate and 95% CI [4]: 96.0% and 96.0 (79.7, 99.8) %
Slightly improved [4]: 0
Cure rate and 95% CI [5]: 3.6 (0.1, 18.3) %
Cured [5]: 1
Failed [5]: 0
Improved [5]: 10
Markedly improved [5]: 16
Response rate and 95% CI [5]: 60.7 (40.6, 78.4) %
Slightly improved [5]: 1
Cure rate and 95% CI [6]: 4.0 (0.2, 20.3) %
Cured [6]: 1
Failed [6]: 0
Improved [6]: 9
Markedly improved [6]: 14
Response rate and 95% CI [6]: 60.0 (38.7, 78.8) %
Slightly improved [6]: 1
Cure rate and 95% CI [7]: 32.0 (15.0, 53.5) %
Cured [7]: 8
Failed [7]: 0
Improved [7]: 4
Markedly improved [7]: 13
Response rate and 95% CI [7]: 84.0 (64.0, 95.4) %
Slightly improved [7]: 0
Cure rate and 95% CI [8]: 27.3% and 27.3 (10.8, 50.2) %
Cured [8]: 6
Failed [8]: 0
Improved [8]: 4
Markedly improved [8]: 12
Response rate and 95% CI [8]: 81.8% and 81.8 (59.8, 94.8) %
Slightly improved [8]: 0
Cure rate and 95% CI [9]: 0.0 (0.0, 11.2) %
Cured [9]: 0
Failed [9]: 0
Improved [9]: 11
Markedly improved [9]: 17
Response rate and 95% CI [9]: 54.8 (36.1, 72.6) %
Slightly improved [9]: 3
Cure rate and 95% CI [10]: 0.0 (0.0, 11.2) %
Cured [10]: 0
Failed [10]: 0
Improved [10]: 11
Markedly improved [10]: 17
Response rate and 95% CI [10]: 54.8 (36.1, 72.6) %
Slightly improved [10]: 3
Cure rate and 95% CI [11]: 40.7 (22.4, 61.2) %
Cured [11]: 11
Failed [11]: 0
Improved [11]: 4
Markedly improved [11]: 12
Response rate and 95% CI [11]: 85.2 (66.3, 95.8) %
Slightly improved [11]: 0
Cure rate and 95% CI [12]: 40.7% and 40.7 (22.4, 61.2) %
Cured [12]: 11
Failed [12]: 0
Improved [12]: 4
Markedly improved [12]: 12
Response rate and 95% CI [12]: 85.2% and 85.2 (66.3, 95.8) %
Slightly improved [12]: 0
